Assay [1] relates to Salmonella typhimurium. Kind of assay: Antibacterial activity against Salmonella typhimurium MTCC-98 assessed as inhibition of bacterial growth incubated for 24 hrs by two-fold serial dilution assay. The assay is classed as functional, Salmonella enterica subsp. enterica serovar Typhimurium. The settings on record: Salmonella enterica.
Assay [2] deals with Escherichia coli. As to the kind of experiment: Antibacterial activity against Escherichia coli MTCC-739 assessed as inhibition of bacterial growth incubated for 24 hrs by two-fold serial dilution assay. The assay is classed as functional.
Assay [3] has as its system Calf thymus DNA. Kind of assay: Binding affinity to calf thymus DNA assessed as binding constant incubated for 30 mins by fluorescence based EtBr-displacement assay. The assay is classed as nucleic-acid assay. The settings on record: Bos taurus.
Assay [4] has as its system Staphylococcus aureus. As to the kind of experiment: Antibacterial activity against Staphylococcus aureus MTCC-737 assessed as inhibition of bacterial growth incubated for 24 hrs by two-fold serial dilution assay. The assay is classed as functional.
Assay [5] has as its system K562. As to the kind of experiment: Antiproliferative activity against human K562 cells assessed as inhibition of cell proliferation incubated for 48 hrs by MTT assay. The settings on record: K562, 48 h. The assay is classed as functional, cell-based.
In assay [6] the test system is HCT-116. Kind of assay: Antiproliferative activity against human HCT-116 cells assessed as inhibition of cell proliferation incubated for 48 hrs by MTT assay. The assay is classed as functional, cell-based. The settings on record: HCT-116, 48 h.
Assay [7] concerns Mus musculus. As to the kind of experiment: Antitumor activity against mouse H22 cells xenografted in Kunming mouse assessed as decrease in tumor growth at 1 mg/kg administered as single injection via caudal vein for 7 consecutive days. The class given is functional. Also on record: scale not given: the % may be the effect or the level left.
Assay [8] relates to MDA-MB-231. As to the kind of experiment: Antiproliferative activity against human MDA-MB-231 cells assessed as inhibition of cell proliferation incubated for 48 hrs by MTT assay. The assay is classed as functional, cell-based. The settings on record: MDA-MB-231, 48 h.
For assay [9], the system named is HepG2. Kind of assay: Antiproliferative activity against human HepG2 cells assessed as inhibition of cell proliferation incubated for 48 hrs by MTT assay. The assay is classed as functional, cell-based. The settings on record: HepG2, 48 h.
Assay [10] deals with Jurkat. Kind of assay: Antiproliferative activity against human Jurkat cells assessed as inhibition of cell proliferation incubated for 72 hrs by MTT assay. The assay is classed as functional, cell-based.
For assay [11], the system named is Calf thymus DNA. Kind of assay: Binding affinity to calf thymus DNA assessed as apparent binding constant by fluorescence based EtBr-displacement assay. The assay is classed as nucleic-acid assay. The settings on record: Bos taurus.
The test system of assay [12] is A549. Kind of assay: Antiproliferative activity against human A549 cells assessed as inhibition of cell proliferation incubated for 72 hrs by MTT assay. The settings on record: A549, 72 h. The assay is classed as functional, cell-based.
The subject of assay [13] is MCF7. As to the kind of experiment: Antiproliferative activity against human MCF7 cells assessed as inhibition of cell proliferation incubated for 72 hrs by MTT assay. The class given is functional, cell-based. The settings on record: MCF7, 72 h.
Assay [14] deals with A-375. As to the kind of experiment: Cytotoxicity against human A-375 cells assessed as cell growth inhibition by MTT assay. The assay is classed as functional, cell-based.
In assay [15] the test system is MCF7. As to the kind of experiment: Cytotoxicity against human MCF7 cells assessed as cell growth inhibition by MTT assay. The class given is functional, cell-based.
Assay [16] relates to P388. Kind of assay: Cytotoxicity against mouse P388 cells assessed as cell growth inhibition by MTT assay. The class given is functional, cell-based.
Assay [17] relates to HCT-8. Kind of assay: Cytotoxicity against human HCT-8 cells assessed as cell growth inhibition by MTT assay. The assay is classed as functional, cell-based.
Assay [18] has as its system HeLa. Kind of assay: Cytotoxicity against human HeLa cells assessed as cell growth inhibition by MTT assay. The class given is functional, cell-based.
Assay [19] concerns HL-60. As to the kind of experiment: Cytotoxicity against human HL-60 cells assessed as cell growth inhibition by MTT assay. The class given is functional, cell-based.
Assay [20] has as its system A549. Kind of assay: Cytotoxicity against human A549 cells assessed as cell growth inhibition by MTT assay. The class given is functional, cell-based.
The subject of assay [21] is Bel-7402. As to the kind of experiment: Antiproliferative activity against human Bel-7402 cells assessed as inhibition of cell growth incubated for 48 hrs by MTT assay. The assay is classed as functional, cell-based. The settings on record: Bel-7402, 48 h.
The subject of assay [22] is HepG2. As to the kind of experiment: Antiproliferative activity against human HepG2 cells assessed as inhibition of cell growth incubated for 48 hrs by MTT assay. The class given is functional, cell-based. The settings on record: HepG2, 48 h.
Assay [23] deals with H22. Kind of assay: Antiproliferative activity against mouse H22 cells assessed as inhibition of cell growth incubated for 48 hrs by MTT assay. The class given is functional, cell-based. The settings on record: H22, 48 h.
Assay [24] relates to SMMC-7721. Kind of assay: Antiproliferative activity against human SMMC-7721 cells assessed as inhibition of cell growth incubated for 48 hrs by MTT assay. The assay is classed as functional, cell-based. The settings on record: SMMC-7721, 48 h.
The test system of assay [25] is HCT-116. Kind of assay: Cytotoxicity against human HCT-116 cells assessed as cell growth inhibition incubated for 48 hrs by sulforhodamine B reagent assay. The settings on record: HCT-116, 48 h. The assay is classed as functional, cell-based.
The subject of assay [26] is RXF 393. Kind of assay: Cytotoxicity against human RXF 393 cells assessed as cell growth inhibition incubated for 48 hrs by sulforhodamine B reagent assay. The assay is classed as functional, cell-based. The settings on record: RXF 393, 48 h.
The subject of assay [27] is EKVX. Kind of assay: Cytotoxicity against human EKVX cells assessed as cell growth inhibition incubated for 48 hrs by sulforhodamine B reagent assay. The assay is classed as functional, cell-based.
Assay [28] concerns Hs-578T. As to the kind of experiment: Cytotoxicity against human Hs-578T cells assessed as cell growth inhibition incubated for 48 hrs by sulforhodamine B reagent assay. The class given is functional, cell-based.
Assay [29] deals with U-251. Kind of assay: Cytotoxicity against human U-251 cells assessed as cell growth inhibition incubated for 48 hrs by sulforhodamine B reagent assay. The class given is functional, cell-based. The settings on record: U-251, 48 h.
Assay [30] has as its system MDA-MB-231. As to the kind of experiment: Cytotoxicity against human MDA-MB-231 cells assessed as cell growth inhibition incubated for 48 hrs by sulforhodamine B reagent assay. The class given is functional, cell-based. The settings on record: MDA-MB-231, 48 h.
Assay [31] concerns SNB-75. As to the kind of experiment: Cytotoxicity against human SNB-75 cells assessed as cell growth inhibition incubated for 48 hrs by sulforhodamine B reagent assay. The class given is functional, cell-based. The settings on record: SNB-75, 48 h.
The test system of assay [32] is 786-0. As to the kind of experiment: Cytotoxicity against human 786-0 cells assessed as cell growth inhibition incubated for 48 hrs by sulforhodamine B reagent assay. The assay is classed as functional, cell-based. The settings on record: 786-0, 48 h.
The subject of assay [33] is OVCAR-4. As to the kind of experiment: Cytotoxicity against human OVCAR-4 cells assessed as cell growth inhibition incubated for 48 hrs by sulforhodamine B reagent assay. The assay is classed as functional, cell-based. The settings on record: OVCAR-4, 48 h.
The subject of assay [34] is Malme-3M. As to the kind of experiment: Cytotoxicity against human Malme-3M cells assessed as cell growth inhibition incubated for 48 hrs by sulforhodamine B reagent assay. The assay is classed as functional, cell-based.
Assay [35] relates to SK-MEL-28. Kind of assay: Cytotoxicity against human SK-MEL-28 cells assessed as cell growth inhibition incubated for 48 hrs by sulforhodamine B reagent assay. The assay is classed as functional, cell-based. The settings on record: SK-MEL-28, 48 h.
The subject of assay [36] is SK-MEL-5. Kind of assay: Cytotoxicity against human SK-MEL-5 cells assessed as cell growth inhibition incubated for 48 hrs by sulforhodamine B reagent assay. The class given is functional, cell-based. The settings on record: SK-MEL-5, 48 h.
Assay [37] deals with KM12. Kind of assay: Cytotoxicity against human KM12 cells assessed as cell growth inhibition incubated for 48 hrs by sulforhodamine B reagent assay. The class given is functional, cell-based. The settings on record: KM12, 48 h.
Assay [38] deals with NCI-H322M. As to the kind of experiment: Cytotoxicity against human NCI-H322M cells assessed as cell growth inhibition incubated for 48 hrs by sulforhodamine B reagent assay. The assay is classed as functional, cell-based.
The test system of assay [39] is SW-620. As to the kind of experiment: Cytotoxicity against human SW620 cells assessed as cell growth inhibition incubated for 48 hrs by sulforhodamine B reagent assay. The assay is classed as functional, cell-based. The settings on record: SW-620, 48 h.
Assay [40] deals with T47D. Kind of assay: Cytotoxicity against human T47D cells assessed as cell growth inhibition incubated for 48 hrs by sulforhodamine B reagent assay. The assay is classed as functional, cell-based.
Assay [41] relates to SF-539. Kind of assay: Cytotoxicity against human SF-539 cells assessed as cell growth inhibition incubated for 48 hrs by sulforhodamine B reagent assay. The class given is functional, cell-based. The settings on record: SF-539, 48 h.
In assay [42] the test system is DU-145. As to the kind of experiment: Cytotoxicity against human DU-145 cells assessed as cell growth inhibition incubated for 48 hrs by sulforhodamine B reagent assay. The assay is classed as functional, cell-based. The settings on record: DU-145, 48 h.
Assay [43] concerns MCF7. Kind of assay: Cytotoxicity against human MCF7 cells assessed as cell growth inhibition incubated for 48 hrs by sulforhodamine B reagent assay. The assay is classed as functional, cell-based. The settings on record: MCF7, 48 h.
Assay [44] relates to K562. Kind of assay: Cytotoxicity against human K562 cells assessed as cell growth inhibition incubated for 48 hrs by sulforhodamine B reagent assay. The settings on record: K562, 48 h. The class given is functional, cell-based.
In assay [45] the test system is BT-549. As to the kind of experiment: Cytotoxicity against human BT-549 cells assessed as cell growth inhibition incubated for 48 hrs by sulforhodamine B reagent assay. The settings on record: BT-549, 48 h. The class given is functional, cell-based.

In brackets after ≈: the same amount, converted by molar mass.

On to `COc1ccc(/C=N/N2C(=O)c3cccc4cccc(c34)C2=O)cc1OC`, for which the minimum inhibitory concentration (MIC) was determined as 62 µg/mL (≈ 172 µM) in assay [1], 31 µg/mL (≈ 86 µM) in assay [2] and 62 µg/mL (≈ 172 µM) in assay [4]. Further, the Kb in [3] was 2 10^4/M.

With `Cl.Cl.Cl.Cl.NCCCNCCCCNCCCNCC(=O)NCCCN1C(=O)c2cccc3cccc(c23)C1=O`, the IC50 in assay [5], in [6], in assay [8] and in [9] was 2860 nM in each case. For the same compound, the Activity in assay [7] was determined as 70.92%.

For `O=C1c2cccc3cccc(c23)C(=O)N1CCCCCCNCc1ccccn1`, the IC50 came out at 5580 nM in assay [10], 5670 nM in assay [12] and 5670 nM in assay [13]. The Kapp in assay [11] was 3.1 10^6/M.

Take `COc1ccc2c(CC(=O)NCCN3C(=O)c4cccc5c(N(C)C)ccc(c45)C3=O)c(C)n(C(=O)c3ccc(Cl)cc3)c2c1`: the IC50 in assay [14], in [15], in assay [16], in [17], in [18] and in assay [19] was 13900 nM each time. For the same compound, the IC50 in [20] came to 13900 nM.

For the compound `O=C1c2cccc3cc([N+](=O)[O-])cc(c23)C(=O)N1CCCCN(CCCl)CCCl`, the IC50 in assay [21], in assay [22], in [23] and in [24] was 1900 nM in each case.

Consider `O=C1c2cccc3cccc(c23)C(=O)N1CCCCOc1ccc(-c2nc3ccc(N4CCOCC4)cc3[nH]2)cc1`, for which the IC50 in assay [25], in assay [26], in assay [27], in assay [28], in assay [29] and in assay [30] was 110 nM each time. For the same compound, the IC50 in assay [31], in [32], in assay [33], in assay [34], in [35] and in assay [36] was 110 nM in each case. The 50% inhibitory concentration (IC50) in assay [37], in [38], in assay [39], in [40], in assay [41] and in [42] was 110 nM each time. The half-maximal inhibitory concentration (IC50) in assay [43], in assay [44] and in assay [45] was 110 nM each time.
